Results from patent US9273057B2 (Bristol-Myers Squibb Company, priority 2012, dated 2016).

Target: CK2A1 (CK2α/β) (Homo sapiens, UniProt P68400)
Assay: CK2 kinase assay, CK2A1 (CK2α/β)
Assay type: biochemical
Conditions: Table A; read-out: CK2A1 (CK2α/β) (IC50)

CK2A1 (CK2α/β), sequence (P68400 whole entry, species assumed): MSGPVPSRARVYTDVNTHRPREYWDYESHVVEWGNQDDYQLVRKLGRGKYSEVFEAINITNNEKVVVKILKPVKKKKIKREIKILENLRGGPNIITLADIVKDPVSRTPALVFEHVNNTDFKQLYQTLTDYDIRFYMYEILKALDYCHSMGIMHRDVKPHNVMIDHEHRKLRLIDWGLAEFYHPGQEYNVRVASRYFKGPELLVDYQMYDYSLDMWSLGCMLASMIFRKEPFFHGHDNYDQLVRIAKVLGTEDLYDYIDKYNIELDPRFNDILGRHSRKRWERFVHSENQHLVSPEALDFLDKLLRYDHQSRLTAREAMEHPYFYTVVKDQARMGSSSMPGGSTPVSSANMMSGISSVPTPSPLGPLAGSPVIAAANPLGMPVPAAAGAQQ
CK2A1 (CK2α/β), sequence (P67870 whole entry partner, species assumed): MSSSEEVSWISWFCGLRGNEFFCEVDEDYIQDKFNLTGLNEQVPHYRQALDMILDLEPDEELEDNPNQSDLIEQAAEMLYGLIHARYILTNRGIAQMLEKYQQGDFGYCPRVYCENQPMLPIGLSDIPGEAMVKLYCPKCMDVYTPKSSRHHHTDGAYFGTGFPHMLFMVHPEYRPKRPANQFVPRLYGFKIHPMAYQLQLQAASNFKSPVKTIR

Structure (SMILES)	IC50 [nM]
N#Cc1cc(Nc2nc(NC3CC3)c3ncc(C#N)n3n2)c(Cl)c(N2CCN(C3CN(C(=O)CCn4ccnc4)C3)CC2)c1 [Example 496, 2-{[2-chloro-5-cyano-3-(4-{1-[3-(1H-imidazol-1-yl)propanoyl]azetidin-3-yl}piperazin-1-yl)phenyl]amino}-4-(cyclopropylamino)imidazo[2,1-f][1,2,4]triazine-7-carbonitrile]	1.82
C[C@@H]1CC(CN2CCN(c3cc(C#N)cc(Nc4nc(NC5CC5)c5ncc(C#N)n5n4)c3Cl)CC2)O1 (stereo partly drawn) [Example 528, 2-((2-chloro-5-cyano-3-(4-(((4R)-4-methyloxetan-2-yl)methyl)piperazin-1-yl)phenyl)amino)-4-(cyclopropylamino)imidazo[2,1-f][1,2,4]triazine-7-carbonitrile]	0.4
N#Cc1cc(Nc2nc(NC3CC3)c3ncc(C#N)n3n2)c(Cl)c(C2CCN(CC(N)=O)CC2)c1 [Example 220, 2-[4-(2-chloro-5-cyano-3-{[7-cyano-4-(cyclopropylamino)imidazo[2,1-f][1,2,4]triazin-2-yl]amino}phenyl)piperidin-1-yl]acetamide]	0.7
N#Cc1cc(Nc2nc(NC3CC3)c3ncc(C#N)n3n2)c(Cl)c(N2CCN3C(CCS3(=O)=O)C2)c1 (racemic) [Example 788, (+/−)-2-((2-chloro-5-cyano-3-(1,1-dioxidotetrahydro-2H-isothiazolo[2,3-a]pyrazin-5 (3H)-yl)phenyl)amino)-4-(cyclopropylamino)imidazo[2,1-f][1,2,4]triazine-7-carbonitrile]	0.62
COCCOCCNc1cc(C#N)cc(Nc2nc(NC3CC3)c3ncc(C#N)n3n2)c1Cl [Example 616, 2-((2-chloro-5-cyano-3-((2-(2-methoxyethoxy)ethyl)amino)phenyl)amino)-4-(cyclopropylamino)imidazo[2,1-f][1,2,4]triazine-7-carbonitrile]	0.86
CC(CC(C)c1cc(Cl)c(Nc2nc(NC3CC3)c3ncc(C#N)n3n2)cc1C#N)NCCC(F)(F)F (single isomer, unassigned) [Example 734, 2-[(2-chloro-5-cyano-4-{4-[(3,3,3-trifluoropropyl)amino]pentan-2-yl}phenyl)amino]-4-(cyclopropylamino) imidazo[2,1-f][1,2,4]triazine-7-carbonitrile]	6.07
CC(C)(O)CNCC(O)c1cc(C#N)cc(Nc2nc(NC3CC3)c3ncc(C#N)n3n2)c1Cl (stereo not drawn) [Example 691, 2-((2-chloro-5-cyano-3-(1-hydroxy-2-((2-hydroxy-2-methylpropyl)amino)ethyl)phenyl)amino)-4-(cyclopropylamino)imidazo[2,1-f][1,2,4]triazine-7-carbonitrile]	1.81
COCC(=O)N1CCC(c2cc(C#N)cc(Nc3nc(NC4CC4)c4ncc(C#N)n4n3)c2Cl)CC1 [Example 227, 2-((2-chloro-5-cyano-3-(1-(methoxyacetyl)-4-piperidinyl)phenyl)amino)-4-(cyclopropylamino)imidazo[2,1-f][1,2,4]triazine-7-carbonitrile]	0.59
CCNc1nc(Nc2ccc3c(c2)c(C#N)cn3C2CCN([C@H]3CS(=O)(=O)C[C@H]3O)CC2)nn2c(C#N)cnc12 [Example 829, 2-((3-cyano-1-(1-((3R,4S)-4-hydroxy-1,1-dioxidotetrahydrothiophen-3-yl)piperidin-4-yl)-1H-indol-5-yl)amino)-4-(ethylamino)imidazo[2,1-f][1,2,4]triazine-7-carbonitrile]	0.72
CN(C)C(=O)C1CN(c2cc(C#N)cc(Nc3nc(NC4CC4)c4ncc(C#N)n4n3)c2Cl)CCN1CC(C)(C)O (stereo not drawn) [Example 317, 4-(2-chloro-5-cyano-3-((7-cyano-4-(cyclopropylamino)imidazo [2,1-f][1,2,4]triazin-2-yl)amino)phenyl)-1-(2-hydroxy-2-methylpropyl)-N,N-dimethylpiperazine-2-carboxamide]	0.99
CN(C)C(=O)C1CN(c2cc(C#N)cc(Nc3nc(NC4CC4)c4ncc(C#N)n4n3)c2Cl)CCN1C1COC1 (stereo not drawn) [Example 564, 4-(2-chloro-5-cyano-3-((7-cyano-4-(cyclopropylamino)imidazo[2,1-f][1,2,4]triazin-2-yl)amino)phenyl)-N,N-dimethyl-1-(oxetan-3-yl)piperazine-2-carboxamide]	4.86
CC(O)C(=O)N1CCN(c2cc(C#N)cc(Nc3nc(NC4CC4)c4ncc(C#N)n4n3)c2Cl)CC1 (racemic) [Example 80, (+/−) 2-((2-chloro-5-cyano-3-(4-lactoyl-1-piperazinyl)phenyl)amino)-4-(cyclopropylamino) imidazo[2,1-f][1,2,4] triazine-7-carbonitrile]	0.47
N#Cc1cc(Nc2nc(NC3CC3)c3ncc(C#N)n3n2)c(Cl)c(N2CCN(C3CN(C(=O)C4CCOC4)C3)CC2)c1 (stereo not drawn) [Example 523, 2-[(2-chloro-5-cyano-3-{4-[1-(oxolane-3-carbonyl)azetidin-3-yl]piperazin-1-yl}phenyl)amino]-4-(cyclopropylamino)imidazo[2,1-f][1,2,4]triazine-7-carbonitrile]	4.77
N#Cc1cc(Nc2nc(NC3CC3)c3ncc(C#N)n3n2)c(Cl)c(N2CCN(C3CN(C(=O)CO)C3)CC2)c1 [Example 488, 2-[(2-chloro-5-cyano-3-{4-[1-(2-hydroxyacetyl)azetidin-3-yl]piperazin-1-yl}phenyl)amino]-4-(cyclopropylamino)imidazo[2,1-f][1,2,4]triazine-7-carbonitrile]	0.6
N#Cc1cc(Nc2nc(NC3CC3)c3ncc(C#N)n3n2)c(Cl)c(N2CCN(C(=O)CN3CCOCC3)CC2)c1 [Example 100, 2-((2-chloro-5-cyano-3-(4-(4-morpholinylacetyl)-1-piperazinyl)phenyl)amino)-4-(cyclopropylamino) imidazo[2,1-f][1,2,4] triazine-7-carbonitrile]	0.55
CN1CCC(F)(c2cc(C#N)cc(Nc3nc(NC4CC4)c4ncc(C#N)n4n3)c2Cl)CC1 [Example 661, 2-((2-chloro-5-cyano-3-(4-fluoro-1-methylpiperidin-4-yl)phenyl)amino)-4-(cyclopropylamino)imidazo[2,1-f][1,2,4]triazine-7-carbonitrile]	1.56

Other lines, results leading:

IC50 [nM]	Structure (SMILES)
0.39	CN(CCNC1COC1)c1cc(Cl)c(Nc2nc(NC3CC3)c3ncc(C#N)n3n2)cc1C#N [Example 413, 2-((2-chloro-5-cyano-4-(methyl(2-(oxetan-3-ylamino)ethyl)amino)phenyl)amino)-4-(cyclopropylamino)imidazo[2,1-f][1,2,4]triazine-7-carbonitrile]
1.31	COC(=O)N1CCN(Cc2cc(C#N)cc(Nc3nc(NC4CC4)c4ncc(C#N)n4n3)c2Cl)CC1 [Example 478, methyl 4-[(2-chloro-5-cyano-3-{[7-cyano-4-(cyclopropylamino)imidazo[2,1-f][1,2,4]triazin-2-yl]amino}phenyl)methyl]piperazine-1-carboxylate]
0.53	CC(C)(O)C(=O)N1CCN(c2cc(C#N)cc(Nc3nc(NC4CC4)c4ncc(C#N)n4n3)c2Cl)CC1 [Example 79, 2-((2-chloro-5-cyano-3-(4-(2-hydroxy-2-methylpropanoyl)-1-piperazinyl)phenyl)amino)-4-(cyclopropylamino) imidazo[2,1-f][1,2,4] triazine-7-carbonitrile]
2.9	CN1CCN(c2cc(Cl)c(Nc3nc(NC4CC4)c4ncc(C#N)n4n3)cc2C#N)CC1 [Example 432, 2-((2-chloro-5-cyano-4-(4-methyl-1-piperazinyl)phenyl)amino)-4-(cyclopropylamino)imidazo[2,1-f][1,2,4]triazine-7-carbonitrile]
0.96	N#Cc1cnc2c(NC3CC3)nc(Nc3cc(C(F)F)cc(N4CCNCC4)c3Cl)nn12 [Example 246, 2-((2-chloro-5-(difluoromethyl)-3-(1-piperazinyl)phenyl)amino)-4-(cyclopropylamino)imidazo[2,1-f][1,2,4]triazine-7-carbonitrile]
0.59	C[C@@H](N)C(=O)N1CCC(c2cc(C#N)cc(Nc3nc(NC4CC4)c4ncc(C#N)n4n3)c2Cl)CC1 [Example 241, 2-((3-(1-D-alanyl-4-piperidinyl)-2-chloro-5-cyanophenyl)amino)-4-(cyclopropylamino)imidazo[2,1-f][1,2,4]triazine-7-carbonitrile]
1.71	N#Cc1cc(CN2CCS(=O)(=O)CC2)c(Cl)c(Nc2nc(NC3CC3)c3ncc(C#N)n3n2)c1 [Example 671, 2-((2-chloro-5-cyano-3-((1,1-dioxidothiomorpholino)methyl)phenyl)amino)-4-(cyclopropylamino)imidazo[2,1-f][1,2,4]triazine-7-carbonitrile]
1.09	CC(=O)N1CC(N2CCC(O)(c3cc(C#N)cc(Nc4nc(NC5CC5)c5ncc(C#N)n5n4)c3Cl)CC2)C1 [Example 650, 2-((3-(1-(1-acetylazetidin-3-yl)-4-hydroxypiperidin-4-yl)-2-chloro-5-cyanophenyl)amino)-4-(cyclopropylamino)imidazo[2,1-f][1,2,4]triazine-7-carbonitrile]
1.81	CC(C)(C)NCC(O)c1cc(C#N)cc(Nc2nc(NC3CC3)c3ncc(C#N)n3n2)c1Cl (stereo not drawn) [Example 692, 2-((3-(2-(tert-butylamino)-1-hydroxyethyl)-2-chloro-5-cyanophenyl)amino)-4-(cyclopropylamino)imidazo[2,1-f][1,2,4]triazine-7-carbonitrile]
0.65	COC(=O)N[C@H]1CCN(c2cc(C#N)cc(Nc3nc(NC4CC4)c4ncc(C#N)n4n3)c2Cl)C[C@@H]1OC(=O)/C=C/C(=O)O [Example 198, (2E)-4-(((3S,4S)-1-(2-chloro-5-cyano-3-((7-cyano-4-(cyclopropylamino)imidazo[2,1-f][1,2,4]triazin-2-yl)amino)phenyl)-4-((methoxycarbonyl)amino)-3-piperidinyl)oxy)-4-oxo-2-butenoic acid]
1.34	N#Cc1cc(Nc2nc(NC3CC3)c3ncc(C#N)n3n2)c(Cl)c(C(O)CN2CCOCC2)c1 (stereo not drawn) [Example 684, 2-((2-chloro-5-cyano-3-(1-hydroxy-2-morpholinoethyl)phenyl)amino)-4-(cyclopropylamino)imidazo[2,1-f][1,2,4]triazine-7-carbonitrile]
